Measured values from US20060009425A1, “Oral formulations of paricalcitol” (priority 2004, published 2006).

Assays:
[1] = Combined Phase 3 studies, safety (Examples 10-12); format: in vivo, human
Protocol: As discussed previously, Vitamin D deficiency is common in early stage CKD and is a major factor in the development of 2° HPT. However, few nephrologists prescribe calcitriol due to concerns of its calcemic, phosphatemic and calciuric effects and potential adverse effect on kidney function. In this example, a study was conducted that evaluated the safety of paricalcitol capsule in CKD stage 3-4 subjects with 2° HPT in 3 double-blind, placebo-controlled multicenter studies. A total of 220 subjects with iPTH ≧150 pg/mL, serum Ca 8-10 mg/dL and P≦5.2 mg/dL were randomized 1:1 and treated with paricalcitol capsule (N=107) or placebo (N=113) three times per week or daily for 24 weeks. Initial doses were based on iPTH levels at baseline (iPTH <500 pg/mL: 2 mcg TIW or 1 mcg QD; iPTH ≧500 pg/mL: 4 mcg TIW or 2 mcg QD). Subsequent dose adjustments (TIW: 2 mcg, QD: 1 mcg) were based on biweekly Ca, P and iPTH results, dose increases occurred every 4 weeks.
In this example, three double-blind, placebo-controlled, multicenter studies were conducted to evaluate the safety and efficacy of paricalcitol capsule in CKD stage 3-4 subjects. Major inclusion included eGFR (MDRD formula) 15-60 mL/min/1.73 m^2, iPTH ≧150 pg/mL. A total of 220 subjects across the 3 studies were randomized and received paricalcitol capsule or placebo three times weekly (TIW, N=145) or daily (QD, N=75) for 24 weeks. Mean baseline eGFR was 23.90 mL/min/1.73 m^2 in the paricalcitol group and 23.44 mL/min/1.73 m^2 in the placebo group. The initial dose was 2 mcg (TIW) or 1 mcg (QD) for baseline iPTH ≦500 pg/mL and 4 mcg (TIW) or 2 mcg (QD) for baseline iPTH >500 pg/mL. Doses were titrated based on serum Ca, P and iPTH results that were measured every 2 weeks, dose increases occurred every 4 weeks.
In this example, paricalcitol capsules were evaluated in 3 double-blind, placebo-controlled multicenter studies in CKD stage 3-4 subjects with 2° HPT; 2 of these studies were conducted with TIW dosing and 1 was done with QD dosing. Subjects with eGFR (MDRD formula) 15-60 ml/min/1.73 m^2, iPTH ≧150 pg/mL, serum Ca 8.0-10.0 mg/dL and PO4≦5.2 mg/dL were randomized 1:1 and treated with paricalcitol capsule or placebo for 24 weeks. A total of 145 subjects used TIW regimen (paricalcitol: 72; placebo: 73) and 75 subjects (paricalcitol: 35; placebo: 40) used QD regimen. After the initial doses, doses were titrated based on serum Ca, P and iPTH results that were measured every 2 weeks; dose increases occurred once every 4 weeks and decreases every 2 weeks. Dosing administrations are shown below in Table 18.

[2] = Phase 3 TIW study, safety (Example 6)
Protocol: Additionally, safety was assessed by the incidence of adverse events, the change from baseline in chemistry, hematology and urinalysis laboratory variables, the change from baseline in subject vital signs, and progressive changes in renal function observed via changes in eGFR.
All randomized subjects who received at least 1 dose of study drug were used in safety analyses. […] This comparison was performed using a Fisher's exact test. Secondary safety analyses were performed comparing changes/percent changes from baseline between the paricalcitol and placebo treatment groups using a one-way ANOVA with treatment group as the factor for the following variables: hematology, complete chemistry, and urinalysis variables; 24-hour urine collections, eGFR, urinary calcium/creatinine ratio, cardiovascular markers, and vital signs. Secondary safety analyses also consisted of an analysis of “treatment-emergent” adverse events (i.e., adverse events with an onset date on or after the date the first dose of study drug was taken). Adverse events were summarized by body system and COSTART term according to the COSTART V adverse event-coding dictionary. Comparisons of the percentage of subjects experiencing an adverse event between the paricalcitol and placebo treatment groups were performed using a Fisher's exact test.

[3] = test system: biochemical bone activity markers; test: Phase 3 TIW study, biochemical bone activity markers (Table D); format: in vivo, human; conditions: CKD Stage 3 and 4, TIW treated subjects (Table D)
Protocol: Serum bone-specific alkaline phosphate and serum osteocalcin are considered more sensitive bone markers to evaluate degree of bone remodeling than urinary bone marker. […] As shown in Examples 5-7 and Tables C (Example 5), Table D (Example 6) and Table E (Example 7), certain biochemical bone activity marker variables were analyzed in CKD Stage 3 and 4 subjects. These subjects received treatment with the oral formulations of the present invention or a placebo. The bone markers examined in these subjects were serum osteocalcin, serum bone-specific alkaline phosphatase, urinary pyridinoline, and deoxypyridinoline. If more than 1 biochemical bone activity marker measurement existed for a subject on a particular day, the higher measurement was considered to be that subject's biochemical bone activity marker measurement for that day. […] The Final Visit measurement was defined as the last biochemical bone activity marker measurement following the first dose of study drug.
The Week 11 Visit measurement was defined as the biochemical bone activity marker measurement on the day closest to the Week 11 scheduled visit, for which the possible measurements to choose from were those collected within 64 and 77 days following the first dose of study drug.
Changes from baseline to Week 11 Visit and to Final Visit in biochemical bone activity markers were compared between oral paricalcitol and placebo using an ANOVA with treatment as the factor on the combined Phase 3 all treated subject population (Table F). Also, the changes from baseline to Week 11 Visit and to Final Visit were compared between oral paricalcitol and placebo using an ANCOVA with baseline as the second factor on the combined Phase 3 all treated subject population (Table G).
During the Treatment Phase, subjects were to self-administer study drug 3 times weekly, on Monday, Wednesday and Friday, for a total of 24 weeks. The initial dose was 2 or 4 mcg (depending on baseline iPTH levels). Procedures to be performed during the Treatment Phase included vital signs, chemistry and hematology, urinary pyridinoline, urinary deoxypyridinoline, serum bone-specific alkaline phosphatase, serum osteocalcin, urinalysis, spot urine for calcium/creatinine ratio, and recording of adverse events and concurrent medications. Serum iPTH, calcium, phosphorus, and albumin were measured every 2 weeks. Dose adjustments were to be made according to these chemistry results for iPTH, calcium, and phosphorus. Doses may have been increased in 2 mcg increments every 4 weeks.

[4] = 3 Phase 3 studies, TIW or daily for 24 weeks, CKD stage 3-4
[5] = N = 106, 3 Phase 3 studies combined
[6] = subjects who completed 24 weeks of treatment

For `C[C@H](/C=C/[C@H](C)C(C)(C)O)[C@H]1CC[C@H]2/C(=C/C=C3C[C@@H](O)C[C@H](O)C3)CCC[C@]12C` [Paricalcitol, 19-nor-1α,3β,25-trihydroxy-9,10-secoergosta-5(Z); 7(E),22(E)-triene], which “subjects who experienced hypercalcemia (2 consecutive Ca >10.5 mg/dL)” value ([1]; 2/106, 3 Phase 3 studies combined) is on record?
Its value is 2%.

And the “adverse event incidence: pharyngitis” value ([1]; 3 Phase 3 studies combined)?
Its value is 10%.

What about the “treatment-emergent adverse events reporting” value ([1]; 3 Phase 3 studies combined) of the same compound?
The value was 82%.

And the “Urine Calcium, Mean Change from Baseline (SE)” value [1, 4]?
The value was 2.4 (3.04) mg/24 hours.

What about the “Urine Calcium, Mean Final Value” [1, 4] of the same compound?
Its value is 42.0 mg/24 hours.

What about the “Urine Phosphorous, Mean Change from Baseline (SE)” value [1, 4] of the same compound?
Its value is −2.1 (39.72) mg/24 hours.

And the “Urine Phosphorous, Mean Final Value” [1, 4]?
Its value is 670.4 mg/24 hours.

And the safety and tolerability ([1]; CKD stage 3-4 subjects, 3 Phase 3 studies)?
Its safety and tolerability is “safe and well tolerated”.

And the “Elevated Ca × P (2 consecutive Ca × P > 55 mg^2/dL^2), subjects n (%)” value (“Elevated Ca × P … (%)” for short) [1, 5]?
The value was 13 (12%).

What about the “Hypercalcemia (2 consecutive Ca > 10.5 mg/dL), subjects n (%)” value (from here on “Hypercalcemia … (%)”) [1, 5] of the same compound?
The value was 2 (2%).

What about the “Hyperphosphatemia (2 consecutive P > 5.5 mg/dL), subjects n (%)” value [1, 5] of the same compound?
Its value is 11 (10%).

And the “Elevated Ca × P … (%)” value ([1]; QD regimen)?
Its value is 5 (14%).

What about the “Hypercalcemia … (%)” value ([1]; QD regimen) of the same compound?
The value was 0 (%).

What about the “Hyperphosphatemia (2 consecutive P > 5.5 mg/dL), subjects n (%)” value ([1]; QD regimen) of the same compound?
Its value is 5 (14%).

And the “Elevated Ca × P … (%)” value ([1]; TIW regimen)?
The value was 8 (12%).

What about the “Hypercalcemia … (%)” value ([1]; TIW regimen) of the same compound?
Its value is 2 (3%).

And the “Hyperphosphatemia (2 consecutive P > 5.5 mg/dL), subjects n (%)” value ([1]; TIW regimen)?
Its value is 6 (9%).

What about the “eGFR (MDRD formula), Mean Change from Baseline” value [1, 6] of the same compound?
The value was −2.5 (0.526) mL/min/1.73 m^2.

What about the “eGFR (MDRD formula), Mean Final Value” [1, 6] of the same compound?
The value was 21.4 mL/min/1.73 m^2.

What about the “eGFR (MDRD formula), Mean Percent Change from Baseline (SE)” value [1, 6] of the same compound?
The value was −10.4 (2.268).

What about the safety and tolerability ([2]; CKD (Stages 3 and 4) subjects) of the same compound?
The safety and tolerability was “safe and well tolerated”.

And the “adverse events considered not related to study drug administration” value ([2]; TIW, 24 weeks)?
Its value is 85%.

And the “adverse events mild or moderate in severity” value ([2]; TIW, 24 weeks)?
Its value is 88%.

What about the “subjects with treatment-emergent adverse events” value ([2]; TIW, 24 weeks) of the same compound?
The value was 79%.

What about the “subjects reporting serious adverse events” value ([2]; Treatment and Follow-Up Phases) of the same compound?
Its value is 9 subjects.

What about the deaths ([2]; cardiopulmonary arrest, considered not related to study drug) of the same compound?
The deaths was 1 subject.

And the “adverse event incidence: constipation” value ([2]; in vivo)?
The value was 8%.

And the “adverse event incidence: depression” value ([2]; in vivo)?
Its value is 8%.

And the “adverse event incidence: headache” value ([2]; in vivo)?
The value was 8%.

What about the “adverse event incidence: hypertension” value ([2]; in vivo) of the same compound?
Its value is 8%.

What about the “adverse event incidence: infection” value ([2]; in vivo) of the same compound?
The value was 8%.

What about the “adverse event incidence: pain” value ([2]; in vivo) of the same compound?
Its value is 10%.

And the “adverse event incidence: pharyngitis” value ([2]; in vivo)?
Its value is 10%.

What about the “adverse event incidence: rhinitis” value ([2]; in vivo) of the same compound?
The value was 8%.

What about the “adverse event incidence: vertigo” value ([2]; in vivo) of the same compound?
Its value is 8%.

And the “subjects terminated prematurely due to adverse events” value ([2]; in vivo)?
Its value is 1 subjects.

What about the “subjects who developed clinically meaningful hypercalcemia (at least 2 consecutive calcium values >10.5 mg/dL)” value ([2]; in vivo) of the same compound?
Its value is 1/38.

What about the “Serum Bone-Specific Alkaline Phosphatase, Change from Baseline (SE) to Final” value [3] of the same compound?
The value was −8.179 (1.2010) mcg/L.

What about the “Serum Bone-Specific Alkaline Phosphatase, Change from Baseline (SE) to Week 11” value [3] of the same compound?
The value was −5.078 (0.9420) mcg/L.

What about the “Serum Osteocalcin, Change from Baseline (SE) to Final” value [3] of the same compound?
The value was −18.92 (3.973) ng/mL.

What about the “Serum Osteocalcin, Change from Baseline (SE) to Week 11” value [3] of the same compound?
The value was −6.96 (3.259) ng/mL.

And the “Urinary Deoxypyridinoline, Change from Baseline (SE) to Final” value [3]?
The value was −0.0182 (0.0062) nmol/mg Creat.

And the “Urinary Deoxypyridinoline, Change from Baseline (SE) to Week 11” value [3]?
The value was −0.0144 (0.00813) nmol/mg Creat.

And the “Urinary Pyridinoline, Change from Baseline (SE) to Final” value [3]?
The value was −7.11 (2.828) nmol/mmol Creat.

And the “Urinary Pyridinoline, Change from Baseline (SE) to Week 11” value [3]?
Its value is −4.87 (3.725) nmol/mmol Creat.
